Data from US8192962B2, “Processes for detecting toxic substances” (Daikin Industries, Ltd., priority 2001, dated 2012).

System: Unknown protein yeast genes
Experiment: DNA chip mRNA expression in yeast, unknown protein yeast genes (Table 1)
Format: cell-based, Saccharomyces cerevisiae S288C
Method in brief: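 In this screen, yeast in logarithmic growth are challenged for two hours with a toxic substance at a non-lethal inhibitory concentration. Their mRNA, converted to Cy3- or Cy5-labeled cDNA, hybridizes at 65° C. to a chip spanning every yeast gene, and expression is expressed as a ratio to untreated cells.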

## COc1cc(CNC(=O)CCCCC=CC(C)C)ccc1O [(12), 8-methyl-N-vanillyl-6-nonenamide]
Yeast gene YAL053W, incubated two hours with chemical substance
  The level of expressed mRNA in the presence of chemical substance/The level of expressed mRNA in the absence of chemical substance: 0.6
Yeast gene YBL048W
  The level of expressed mRNA in the presence of chemical substance/The level of expressed mRNA in the absence of chemical substance: 1.2
Yeast gene YBL107C
  The level of expressed mRNA in the presence of chemical substance/The level of expressed mRNA in the absence of chemical substance: 1.4
Yeast gene YCR043C
  The level of expressed mRNA in the presence of chemical substance/The level of expressed mRNA in the absence of chemical substance: 0.6
Yeast gene YCR102C
  The level of expressed mRNA in the presence of chemical substance/The level of expressed mRNA in the absence of chemical substance: 0.5
Yeast gene YDL072C, incubated two hours with chemical substance
  The level of expressed mRNA in the presence of chemical substance/The level of expressed mRNA in the absence of chemical substance: 1.2
Yeast gene YDL204W, incubated two hours with chemical substance
  The level of expressed mRNA in the presence of chemical substance/The level of expressed mRNA in the absence of chemical substance: 0.9
Yeast gene YDL222C, incubated two hours with chemical substance
  The level of expressed mRNA in the presence of chemical substance/The level of expressed mRNA in the absence of chemical substance: 1.0
Yeast gene YDR330W, incubated two hours with chemical substance
  The level of expressed mRNA in the presence of chemical substance/The level of expressed mRNA in the absence of chemical substance: 1.0
Yeast gene YDR411C, incubated two hours with chemical substance
  The level of expressed mRNA in the presence of chemical substance/The level of expressed mRNA in the absence of chemical substance: 1.5
Yeast gene YDR511W, incubated two hours with chemical substance
  The level of expressed mRNA in the presence of chemical substance/The level of expressed mRNA in the absence of chemical substance: 0.8
Yeast gene YDR545W, incubated two hours with chemical substance
  The level of expressed mRNA in the presence of chemical substance/The level of expressed mRNA in the absence of chemical substance: 0.9
Yeast gene YEL001C, incubated two hours with chemical substance
  The level of expressed mRNA in the presence of chemical substance/The level of expressed mRNA in the absence of chemical substance: 1.1
Yeast gene YER004W, incubated two hours with chemical substance
  The level of expressed mRNA in the presence of chemical substance/The level of expressed mRNA in the absence of chemical substance: 1.7
Yeast gene YER035W, incubated two hours with chemical substance
  The level of expressed mRNA in the presence of chemical substance/The level of expressed mRNA in the absence of chemical substance: 1.1
Yeast gene YER079W, incubated two hours with chemical substance
  The level of expressed mRNA in the presence of chemical substance/The level of expressed mRNA in the absence of chemical substance: 0.9
Yeast gene YER106W, incubated two hours with chemical substance
  The level of expressed mRNA in the presence of chemical substance/The level of expressed mRNA in the absence of chemical substance: 0.9
Yeast gene YER158C, incubated two hours with chemical substance
  The level of expressed mRNA in the presence of chemical substance/The level of expressed mRNA in the absence of chemical substance: 1.0
Yeast gene YER163C, incubated two hours with chemical substance
  The level of expressed mRNA in the presence of chemical substance/The level of expressed mRNA in the absence of chemical substance: 1.0
Yeast gene YER175C, incubated two hours with chemical substance
  The level of expressed mRNA in the presence of chemical substance/The level of expressed mRNA in the absence of chemical substance: 0.9
Yeast gene YFL006W, incubated two hours with chemical substance
  The level of expressed mRNA in the presence of chemical substance/The level of expressed mRNA in the absence of chemical substance: 1.2
Yeast gene YFL010C, incubated two hours with chemical substance
  The level of expressed mRNA in the presence of chemical substance/The level of expressed mRNA in the absence of chemical substance: 1.5
Yeast gene YFL024C
  The level of expressed mRNA in the presence of chemical substance/The level of expressed mRNA in the absence of chemical substance: 0.8
Yeast gene YFL032W, incubated two hours with chemical substance
  The level of expressed mRNA in the presence of chemical substance/The level of expressed mRNA in the absence of chemical substance: 0.7
Yeast gene YGL037C, incubated two hours with chemical substance
  The level of expressed mRNA in the presence of chemical substance/The level of expressed mRNA in the absence of chemical substance: 0.8
Yeast gene YGL047W, incubated two hours with chemical substance
  The level of expressed mRNA in the presence of chemical substance/The level of expressed mRNA in the absence of chemical substance: 1.1
Yeast gene YGL053W, incubated two hours with chemical substance
  The level of expressed mRNA in the presence of chemical substance/The level of expressed mRNA in the absence of chemical substance: 1.3
Yeast gene YGL121C
  The level of expressed mRNA in the presence of chemical substance/The level of expressed mRNA in the absence of chemical substance: 1.6
Yeast gene YGL199C, incubated two hours with chemical substance
  The level of expressed mRNA in the presence of chemical substance/The level of expressed mRNA in the absence of chemical substance: 0.9
Yeast gene YGR101W, incubated two hours with chemical substance
  The level of expressed mRNA in the presence of chemical substance/The level of expressed mRNA in the absence of chemical substance: 1.0
Yeast gene YGR110W
  The level of expressed mRNA in the presence of chemical substance/The level of expressed mRNA in the absence of chemical substance: 1.4
Yeast gene YGR130C, incubated two hours with chemical substance
  The level of expressed mRNA in the presence of chemical substance/The level of expressed mRNA in the absence of chemical substance: 0.7
Yeast gene YGR154C, incubated two hours with chemical substance
  The level of expressed mRNA in the presence of chemical substance/The level of expressed mRNA in the absence of chemical substance: 0.9
Yeast gene YGR221C, incubated two hours with chemical substance
  The level of expressed mRNA in the presence of chemical substance/The level of expressed mRNA in the absence of chemical substance: 1.6
Yeast gene YHL042W
  The level of expressed mRNA in the presence of chemical substance/The level of expressed mRNA in the absence of chemical substance: 0.6
Yeast gene YHR138C, incubated two hours with chemical substance
  The level of expressed mRNA in the presence of chemical substance/The level of expressed mRNA in the absence of chemical substance: 1.8
Yeast gene YHR199C, incubated two hours with chemical substance
  The level of expressed mRNA in the presence of chemical substance/The level of expressed mRNA in the absence of chemical substance: 1.1
Yeast gene YIL012W
  The level of expressed mRNA in the presence of chemical substance/The level of expressed mRNA in the absence of chemical substance: 0.6
Yeast gene YIL023C, incubated two hours with chemical substance
  The level of expressed mRNA in the presence of chemical substance/The level of expressed mRNA in the absence of chemical substance: 0.9
Yeast gene YIL041W, incubated two hours with chemical substance
  The level of expressed mRNA in the presence of chemical substance/The level of expressed mRNA in the absence of chemical substance: 1.0
Yeast gene YIL057C
  The level of expressed mRNA in the presence of chemical substance/The level of expressed mRNA in the absence of chemical substance: 0.6
Yeast gene YIL087C, incubated two hours with chemical substance
  The level of expressed mRNA in the presence of chemical substance/The level of expressed mRNA in the absence of chemical substance: 1.1
Yeast gene YIL089W
  The level of expressed mRNA in the presence of chemical substance/The level of expressed mRNA in the absence of chemical substance: 0.6
Yeast gene YIL102C
  The level of expressed mRNA in the presence of chemical substance/The level of expressed mRNA in the absence of chemical substance: 0.6
Yeast gene YJL057C, incubated two hours with chemical substance
  The level of expressed mRNA in the presence of chemical substance/The level of expressed mRNA in the absence of chemical substance: 1.0
Yeast gene YJL066C, incubated two hours with chemical substance
  The level of expressed mRNA in the presence of chemical substance/The level of expressed mRNA in the absence of chemical substance: 1.0
Yeast gene YJL082W, incubated two hours with chemical substance
  The level of expressed mRNA in the presence of chemical substance/The level of expressed mRNA in the absence of chemical substance: 1.3
Yeast gene YJL151C, incubated two hours with chemical substance
  The level of expressed mRNA in the presence of chemical substance/The level of expressed mRNA in the absence of chemical substance: 1.3
Yeast gene YJL152W, incubated two hours with chemical substance
  The level of expressed mRNA in the presence of chemical substance/The level of expressed mRNA in the absence of chemical substance: 1.0
Yeast gene YJL161W, incubated two hours with chemical substance
  The level of expressed mRNA in the presence of chemical substance/The level of expressed mRNA in the absence of chemical substance: 1.0
Yeast gene YJL171C, incubated two hours with chemical substance
  The level of expressed mRNA in the presence of chemical substance/The level of expressed mRNA in the absence of chemical substance: 1.0
Yeast gene YJR008W, incubated two hours with chemical substance
  The level of expressed mRNA in the presence of chemical substance/The level of expressed mRNA in the absence of chemical substance: 1.3
Yeast gene YJR054W, incubated two hours with chemical substance
  The level of expressed mRNA in the presence of chemical substance/The level of expressed mRNA in the absence of chemical substance: 0.9
Yeast gene YKL071W
  The level of expressed mRNA in the presence of chemical substance/The level of expressed mRNA in the absence of chemical substance: 1.0
